The test system of data set [1] is Saccharomyces cerevisiae. In words: Inhibition of FKBP12 in yeast assessed as reduction in cell proliferation.
In data set [2] the target is T1, Peptidyl-prolyl cis-trans isomerase FKBP1A (Homo sapiens, UniProt P62942). In words: Inhibition of recombinant human FKBP12 expressed in Escherichia coli using succinyl-Ala-Phe-Pro-Phe-4-nitroanilide as substrate measured after 5 to 10 mins by spectrophotometric method.
The target in data set [3] is T1, Peptidyl-prolyl cis-trans isomerase FKBP1A. In words: Inhibition of [3H]-FK506 binding to recombinant human His6-tagged FKBP12 pretreated for 10 mins followed by [3H]-FK506 addition and measured after 1.5 hrs by microbeta scintillation counting method.
Data set [4] is described as follows: Apparent terminal half life in Sprague-Dawley rat at 2.5 mg/kg, iv administered as bolus dose by mass spectrometric analysis. It is filed as ADME, organism-based. Conditions: in vivo, read-out: betat1/2(app) (converted).
A short description of data set [5]: Half life in human administered as oral dose. The following applies: in vivo. The data set is classed as ADME, organism-based.

Each structure is given as a SMILES string.

The term Ki denotes the dissociation constant of the complex between target and ligand, obtained from inhibition or displacement. Usually IC50 stands for the point on the concentration scale where inhibition reaches its midpoint.

T1 sequence (P62942 whole entry): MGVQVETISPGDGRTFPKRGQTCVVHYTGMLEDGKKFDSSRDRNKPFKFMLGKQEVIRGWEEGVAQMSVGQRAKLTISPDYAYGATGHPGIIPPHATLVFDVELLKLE

For the compound `CO[C@@H]1C[C@H](C[C@@H](C)[C@@H]2CC(=O)[C@H](C)/C=C(\C)[C@@H](O)[C@@H](OC)C(=O)[C@H](C)C[C@H](C)/C=C/C=C/C=C(\C)[C@@H](SC)C[C@@H]3CC[C@@H](C)[C@@](O)(O3)C(=O)C(=O)N3CCCC[C@H]3C(=O)O2)CC[C@H]1O`, in data set [1], the IC12 is 4 nM.

Regarding `CO[C@@H]1C[C@@H]2CC[C@@H](C)[C@@](O)(O2)C(=O)C(=O)N2CCCC[C@H]2C(=O)O[C@H]([C@H](C)C[C@@H]2CC[C@@H](O)[C@H](OC)C2)CC(=O)[C@H](C)/C=C(\C)[C@@H](O)[C@@H](OC)C(=O)[C@H](C)C[C@H](C)/C=C/C=C/C=C/1C`, in data set [1], the IC12 is 20 nM.

For the compound `CO[C@@H]1C[C@H](C[C@@H](C)[C@@H]2CC(=O)[C@H](C)/C=C(\C)[C@@H](O)[C@@H](OC)C(=O)[C@H](C)C[C@H](C)/C=C/C=C/C=C(\C)[C@@H](OCc3ccc(Cl)cc3)C[C@@H]3CC[C@@H](C)[C@@](O)(O3)C(=O)C(=O)N3CCCC[C@H]3C(=O)O2)CC[C@H]1O`, the Ki in data set [2] worked out at 1 nM. The IC12 in data set [1] came out at 6 nM.

Consider `CO[C@@H]1C[C@H](C[C@@H](C)[C@@H]2CC(=O)[C@H](C)/C=C(\C)[C@@H](O)[C@@H](OC)C(=O)[C@H](C)C[C@H](C)/C=C/C=C/C=C(\C)[C@@H](c3ccc[nH]3)C[C@@H]3CC[C@@H](C)[C@@](O)(O3)C(=O)C(=O)N3CCCC[C@H]3C(=O)O2)CC[C@H]1O`, for which the inhibition constant Ki in data set [2] was 10 nM. Besides, in data set [1], the IC12 is 28 nM.

`CO[C@@H]1C[C@H](C[C@@H](C)[C@@H]2CC(=O)[C@H](C)/C=C(\C)[C@@H](O)[C@@H](OC)C(=O)[C@H](C)C[C@H](C)/C=C/C=C/C=C(\C)[C@H](c3ccc[nH]3)C[C@@H]3CC[C@@H](C)[C@@](O)(O3)C(=O)C(=O)N3CCCC[C@H]3C(=O)O2)CC[C@H]1O`: the inhibition constant Ki in data set [2] turned out to be 1.5 nM. In data set [1], the IC12 was 28 nM.

With `CO[C@@H]1C[C@H](C[C@@H](C)[C@@H]2CC(=O)[C@H](C)/C=C(\C)[C@@H](O)[C@@H](OC)C(=O)[C@H](C)C[C@H](C)/C=C/C=C/C=C(\C)[C@H](SC)C[C@@H]3CC[C@@H](C)[C@@](O)(O3)C(=O)C(=O)N3CCCC[C@H]3C(=O)O2)CC[C@H]1O`, in data set [1], the IC12 was determined as 4 nM.

Regarding `CO[C@H]1C[C@@H]2CC[C@@H](C)[C@@](O)(O2)C(=O)C(=O)N2CCSC[C@H]2C(=O)O[C@H]([C@H](C)C[C@@H]2CC[C@@H](O)[C@H](OC)C2)CC(=O)[C@H](C)/C=C(\C)[C@@H](O)[C@@H](OC)C(=O)[C@H](C)C[C@H](C)/C=C/C=C/C=C/1C`, the IC50 in data set [3] was 53.6 nM.

As for `CO[C@H]1C[C@@H]2CC[C@@H](C)[C@@](O)(O2)C(=O)C(=O)N2CCCC[C@H]2C(=O)O[C@H]([C@H](C)C[C@@H]2CC[C@H](n3cnnn3)[C@H](OC)C2)CC(=O)[C@H](C)/C=C(\C)[C@@H](O)[C@@H](OC)C(=O)[C@H](C)C[C@H](C)/C=C/C=C/C=C/1C` [ZOTAROLIMUS], the half-life in data set [4] is 9.4 h.

Take `CO[C@@H]1C[C@H](C[C@@H](C)[C@@H]2CC(=O)[C@H](C)/C=C(\C)[C@@H](O)[C@@H](OC)C(=O)[C@H](C)C[C@H](C)/C=C/C=C/C=C(\C)[C@@H](OCc3ccccc3)C[C@@H]3CC[C@@H](C)[C@@](O)(O3)C(=O)C(=O)N3CCCC[C@H]3C(=O)O2)CC[C@H]1O`: in data set [2], the Ki worked out at 5 nM. Also, in data set [1], the IC12 is 6 nM.

Consider `CCO[C@H]1C[C@@H]2CC[C@@H](C)[C@@](O)(O2)C(=O)C(=O)N2CCCC[C@H]2C(=O)O[C@H]([C@H](C)C[C@@H]2CC[C@@H](O)[C@H](OC)C2)CC(=O)[C@H](C)/C=C(\C)[C@@H](O)[C@@H](OC)C(=O)[C@H](C)C[C@H](C)/C=C/C=C/C=C/1C`, for which the inhibition constant (Ki) in data set [2] is 3.5 nM. In data set [1], the IC12 came out at 10 nM.

On to `COc1ccc([C@@H]2C[C@@H]3CC[C@@H](C)[C@@](O)(O3)C(=O)C(=O)N3CCCC[C@H]3C(=O)O[C@H]([C@H](C)C[C@@H]3CC[C@@H](O)[C@H](OC)C3)CC(=O)[C@H](C)/C=C(\C)[C@@H](O)[C@@H](OC)C(=O)[C@H](C)C[C@H](C)/C=C/C=C/C=C/2C)c(OC)c1`, for which, in data set [2], the inhibition constant Ki came out at 38 nM. Moreover, the IC12 in data set [1] amounted to 400 nM.

`CO[C@H]1C[C@@H]2CC[C@@H](C)[C@@](O)(O2)C(=O)C(=O)N2CCCC[C@H]2C(=O)O[C@H]([C@H](C)C[C@@H]2CC[C@@H](O)[C@H](OC)C2)CC(=O)[C@H](C)/C=C(\C)[C@@H](O)[C@@H](OC)C(=O)[C@H](C)C[C@H](C)/C=C/C=C/C=C/1C` [SIROLIMUS]: the IC12 in data set [1] was 7 nM. In addition, the half-life in data set [5] is 62 to 82 h; in data set [4], 14 h.

On to `COc1cc(OC)c([C@@H]2C[C@@H]3CC[C@@H](C)[C@@](O)(O3)C(=O)C(=O)N3CCCC[C@H]3C(=O)O[C@H]([C@H](C)C[C@@H]3CC[C@@H](O)[C@H](OC)C3)CC(=O)[C@H](C)/C=C(\C)[C@@H](O)[C@@H](OC)C(=O)[C@H](C)C[C@H](C)/C=C/C=C/C=C/2C)c(OC)c1`, for which, in data set [2], the Ki was determined as 7 nM. For the same compound, in data set [1], the IC12 was more than 1000 nM.

Take `CO[C@@H]1C[C@H](C[C@@H](C)[C@@H]2CC(=O)[C@H](C)/C=C(\C)[C@@H](O)[C@@H](OC)C(=O)[C@H](C)C[C@H](C)/C=C/C=C/C=C(\C)[C@@H](c3ccco3)C[C@@H]3CC[C@@H](C)[C@@](O)(O3)C(=O)C(=O)N3CCCC[C@H]3C(=O)O2)CC[C@H]1O`: the inhibition constant (Ki) in data set [2] stood at 3 nM. Also, the IC12 in data set [1] is 12.5 nM.

In the case of `CO[C@@H]1C[C@H](C[C@@H](C)[C@@H]2CC(=O)[C@H](C)/C=C(\C)[C@@H](O)[C@@H](OC)C(=O)[C@H](C)C[C@H](C)/C=C/C=C/C=C(\C)[C@@H](OCc3cccc([N+](=O)[O-])c3)C[C@@H]3CC[C@@H](C)[C@@](O)(O3)C(=O)C(=O)N3CCCC[C@H]3C(=O)O2)CC[C@H]1O`, the inhibitory constant (Ki) in data set [2] was 7 nM. Besides, the IC12 in data set [1] was found to be 20 nM.

In the case of `COC(=O)N[C@@H]1C[C@@H]2CC[C@@H](C)[C@@](O)(O2)C(=O)C(=O)N2CCCC[C@H]2C(=O)O[C@H]([C@H](C)C[C@@H]2CC[C@@H](O)[C@H](OC)C2)CC(=O)[C@H](C)/C=C(\C)[C@@H](O)[C@@H](OC)C(=O)[C@H](C)C[C@H](C)/C=C/C=C/C=C/1C`, in data set [2], the inhibition constant Ki was 3.7 nM. Further, in data set [1], the IC12 was 220 nM.

For the compound `CO[C@@H]1C[C@H](C[C@@H](C)[C@@H]2CC(=O)[C@H](C)/C=C(\C)[C@@H](O)[C@@H](OC)C(=O)[C@H](C)C[C@H](C)/C=C/C=C/C=C(\C)[C@H](c3ccco3)C[C@@H]3CC[C@@H](C)[C@@](O)(O3)C(=O)C(=O)N3CCCC[C@H]3C(=O)O2)CC[C@H]1O`, the Ki in data set [2] stood at 6 nM. Moreover, the IC12 in data set [1] came to 3 nM.

`CO[C@@H]1C[C@H](C[C@@H](C)[C@@H]2CC(=O)[C@H](C)/C=C(\C)[C@@H](O)[C@@H](OC)C(=O)[C@H](C)C[C@H](C)/C=C/C=C/C=C(\C)C(=O)C[C@@H]3CC[C@@H](C)[C@@](O)(O3)C(=O)C(=O)N3CCCC[C@H]3C(=O)O2)CC[C@H]1O`: in data set [2], the Ki is 29 nM. For the same compound, the IC12 in data set [1] came to 210 nM.

Turning to `COc1ccc([C@H]2C[C@@H]3CC[C@@H](C)[C@@](O)(O3)C(=O)C(=O)N3CCCC[C@H]3C(=O)O[C@H]([C@H](C)C[C@@H]3CC[C@@H](O)[C@H](OC)C3)CC(=O)[C@H](C)/C=C(\C)[C@@H](O)[C@@H](OC)C(=O)[C@H](C)C[C@H](C)/C=C/C=C/C=C/2C)c(OC)c1`, the Ki in data set [2] is 9 nM. The IC12 in data set [1] was 225 nM.

Turning to `CO[C@@H]1C[C@H](C[C@@H](C)[C@@H]2CC(=O)[C@H](C)/C=C(\C)[C@@H](O)[C@@H](OC)C(=O)[C@H](C)C[C@H](C)/C=C/C=C/C=C(\C)CC[C@@H]3CC[C@@H](C)[C@@](O)(O3)C(=O)C(=O)N3CCCC[C@H]3C(=O)O2)CC[C@H]1O`, in data set [1], the IC12 came to 8 nM.

As to `COC(=O)N[C@H]1C[C@@H]2CC[C@@H](C)[C@@](O)(O2)C(=O)C(=O)N2CCCC[C@H]2C(=O)O[C@H]([C@H](C)C[C@@H]2CC[C@@H](O)[C@H](OC)C2)CC(=O)[C@H](C)/C=C(\C)[C@@H](O)[C@@H](OC)C(=O)[C@H](C)C[C@H](C)/C=C/C=C/C=C/1C`, the Ki in data set [2] stood at 4.5 nM. Further, the IC12 in data set [1] came out at 170 nM.

The values are drawn from ChEMBL document CHEMBL4257468, “Synthesis and biological evaluation of rapamycin-derived, next generation small molecules” (Medchemcomm, 2018).
